# Data reported in the supplement of paper PMC10307832.
# Compound: COc1nc(N)nc2c1ncn2[C@@H]1O[C@H](CO)[C@@H](O)[C@@H]1O [Nelarabine] + Cc1nc(NC(=O)N2CCC[C@H]2C(N)=O)sc1-c1ccnc(C(C)(C)C(F)(F)F)c1 [Alpelisib] (partner 2 µM)
# Experiment: relative viability (nuclei count vs DMSO), 5 days (fraction); higher = more cells survive
# Details: first compound 1 µM
# Summary of the method: (§1)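 Medians of duplicate plates are given as relative viability. That measure is the nuclei count in treated wells divided by the count in vehicle wells. Counts were taken on 4× images of lung cancer cell lines in 1536-well plates, 5 days after pin-tool dosing the day after seeding with one drug alone or a fixed anchor-drug dose plus five library-drug doses (not always all listed) in √10 steps.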
row,Cell Line,relative viability
1,NCI-H2085,1.02
2,NCI-H2087,1.07
3,NCI-H2126,0.774
4,NCI-H2170,0.937
5,NCI-H2347,1.14
6,NCI-H2405,0.801
7,NCI-H3122,0.761
8,PC-3 [JPC-3],0.986
9,PC-14,0.947
10,RERF-LC-KJ,1.09

# Compound: C=CCn1c(=O)c2cnc(Nc3ccc(N4CCN(C)CC4)cc3)nc2n1-c1cccc(C(C)(C)O)n1 [Adavosertib] + NC(=O)Nc1cc(-c2cccc(F)c2)sc1C(=O)N[C@H]1CCCNC1 [AZD7762] (partner 0.2 µM)
# Experiment: as above
# Details: first compound 0.01 µM
# Summary of the method: as §1
row,Cell Line,relative viability
1,LXF-289,1.08
2,NCI-H23,0.227
3,NCI-H322M,0.472
4,NCI-H358,0.486
5,NCI-H441,1.12
6,NCI-H460,0.376
7,NCI-H596,1.04
8,NCI-H647,0.351
9,NCI-H650,0.736
10,NCI-H727,0.636
11,NCI-H838,0.986
12,NCI-H1355,0.734
13,NCI-H1395,0.377
14,NCI-H1437,1.11
15,NCI-H1651,0.415
16,NCI-H1666,0.766

row,Cell Line,relative viability
1,NCI-H1734,0.379
2,NCI-H1755,0.455
3,NCI-H1793,0.407
4,NCI-H1915,0.724
5,NCI-H1944,0.511
6,NCI-H1975,0.713
7,NCI-H1993,0.905
8,NCI-H2085,0.995
9,NCI-H2087,1.37
10,NCI-H2126,0.962
11,NCI-H2170,0.919
12,NCI-H2347,0.791
13,NCI-H3122,0.998
14,PC-14,0.261
15,RERF-LC-KJ,0.987

# Same assay, conditions: first compound 0.03162 µM
row,Cell Line,relative viability
1,LXF-289,0.984
2,NCI-H23,0.143
3,NCI-H322M,0.427
4,NCI-H358,0.488
5,NCI-H441,0.989
6,NCI-H460,0.507
7,NCI-H596,1.05
8,NCI-H647,0.358
9,NCI-H650,0.809
10,NCI-H727,0.406
11,NCI-H838,0.831
12,NCI-H1355,0.599
13,NCI-H1395,0.354
14,NCI-H1437,1.11
15,NCI-H1651,0.299
16,NCI-H1666,0.829
17,NCI-H1734,0.315

row,Cell Line,relative viability
1,NCI-H1755,0.33
2,NCI-H1793,0.2
3,NCI-H1915,0.657
4,NCI-H1944,0.31
5,NCI-H1975,0.677
6,NCI-H1993,0.828
7,NCI-H2085,0.909
8,NCI-H2087,1.21
9,NCI-H2126,1.03
10,NCI-H2170,0.838
11,NCI-H2347,0.674
12,NCI-H2405,0.663
13,NCI-H3122,0.829
14,PC-3 [JPC-3],0.757
15,PC-14,0.289
16,RERF-LC-KJ,1.02

# Same assay, conditions: first compound 0.1 µM
row,Cell Line,relative viability
1,LXF-289,0.683
2,NCI-H23,0.118
3,NCI-H322M,0.387
4,NCI-H358,0.329
5,NCI-H441,0.658
6,NCI-H460,0.169
7,NCI-H596,0.844
8,NCI-H647,0.167
9,NCI-H650,0.411
10,NCI-H727,0.445
11,NCI-H838,0.722
12,NCI-H1355,0.406
13,NCI-H1395,0.345
14,NCI-H1437,1.15
15,NCI-H1651,0.264
16,NCI-H1666,0.803
17,NCI-H1734,0.202

row,Cell Line,relative viability
1,NCI-H1755,0.327
2,NCI-H1793,0.14
3,NCI-H1915,0.566
4,NCI-H1944,0.23
5,NCI-H1975,0.663
6,NCI-H1993,0.697
7,NCI-H2085,0.731
8,NCI-H2087,1.3
9,NCI-H2126,0.949
10,NCI-H2170,0.725
11,NCI-H2347,0.476
12,NCI-H2405,0.331
13,NCI-H3122,0.963
14,PC-3 [JPC-3],0.777
15,PC-14,0.224
16,RERF-LC-KJ,1.02

# Same assay, conditions: first compound 0.3162 µM
row,Cell Line,relative viability
1,LXF-289,0.231
2,NCI-H23,0.142
3,NCI-H322M,0.337
4,NCI-H358,0.234
5,NCI-H441,0.355
6,NCI-H460,0.0591
7,NCI-H596,0.751
8,NCI-H647,0.0858
9,NCI-H650,0.221
10,NCI-H727,0.394
11,NCI-H838,0.626
12,NCI-H1355,0.307
13,NCI-H1395,0.316
14,NCI-H1437,0.581
15,NCI-H1651,0.132
16,NCI-H1666,0.625
17,NCI-H1734,0.168

row,Cell Line,relative viability
1,NCI-H1755,0.253
2,NCI-H1793,0.179
3,NCI-H1915,0.238
4,NCI-H1944,0.164
5,NCI-H1975,0.641
6,NCI-H1993,0.807
7,NCI-H2085,0.409
8,NCI-H2087,1.03
9,NCI-H2126,0.788
10,NCI-H2170,0.266
11,NCI-H2347,0.329
12,NCI-H2405,0.276
13,NCI-H3122,0.511
14,PC-3 [JPC-3],0.709
15,PC-14,0.0765
16,RERF-LC-KJ,0.878
